Where two headings read alike, the source gives them in different places.
How the values were obtained:
[1] = biological target: T1, human Arginine Vasopressin Receptor 1a (AVPR1a) (Homo sapiens, UniProt P37288); assay: Vasopressin V1a receptor antagonist assay (FLIPR calcium, CHO-AVPR1a cells); type: cell-based
T1 construct: expressed in transfected cells; host or cells: CHO (Chinese Hamster Ovary) cells, kept under G418 selection
Protocol: The purpose of this assay is to determine the inhibitory effect of synthesized compounds on the Vasopressin V1a receptor. The assay is performed in Chinese Hamster Ovary (CHO) cells expressing the human Arginine Vasopressin Receptor 1a (AVPR1a). Arginine Vasopressin (AVP) evokes an increase in intracellular calcium in CHO-AVPR1a cells which is measured in a fluorescence assay on the FLIPR^TETRA using calcium sensitive dyes. Test compounds are assessed for their ability to affect the magnitude of the response to AVP, with antagonists showing a concentration-dependent reduction in the AVP-mediated fluorescence. Compounds are tested in duplicate in a 10-point, 1:3 dilution series starting at a nominal concentration of 3 μM in the assay. […]
On day one, cells are harvested from T175 flasks when they are 80-90% confluent by first washing the cell monolayer with PBS and then dissociated using trypsin 0.05%/EDTA (3 mL for a T175 Flask). […] To the cell suspension, 10 ml of growth media is added and the cell density determined using the Vi-Cell automated cell counter. […]
At the start of each assay day, the potency of AVP is assessed and an EC80 concentration determined for subsequent compound profiling. […] At the end of the incubation period, 10 μl of AVP in assay buffer containing 0.1% BSA is added at the previously determined EC80 concentration.

[2] = biological target: T2, human Arginine Vasopressin Receptor V2 (AVPR2) (Homo sapiens, UniProt P30518); assay: Vasopressin V2 receptor antagonist assay (TR-FRET cAMP, 1321N1 cells); type: cell-based
T2 construct: host or cells: 1321N1 cells (cAMPZen V2 assay ready cells)
Protocol: The purpose of the assay is to determine the inhibitory effect of synthesized compounds on the Vasopressin receptor 2. […] Arginine Vasopressin (AVP) evokes an increase in intracellular cAMP in these cells which is measured in a TR-FRET assay using a Europium cAMP tracer and ULight labelled antibody reagents contained in a LANCE Ultra cAMP kit (Perkin Elmer #TRF0263). […] Test compounds are assessed for their ability to affect the magnitude of the response to AVP, with antagonists showing a concentration-dependent decrease in the AVP-mediated reduction in TR-FRET signal.
cAMPZen V2 assay ready cells are thawed at 37° C. and resuspended directly from frozen in 9 ml growth medium consisting of DMEM supplemented with 10% v/v fetal bovine serum, 1× non-essential amino acids, and 1 mM sodium pyruvate. […] The pellet is resuspended in 5 ml stimulation buffer and the cell density determined using the Vi-Cell automated cell counter. The cell suspension is diluted to a 0.2×10^6/ml suspension ready for plating. […]
At the start of each assay day the potency of AVP is assessed and an EC80 concentration determined for subsequent compound profiling. […] After a one hour incubation, plates are ready to be read (signals then remained stable for up to 24 hours). […] At the end of the incubation period, 2.5 μl of AVP in stimulation buffer is added at the previously determined EC80 concentration.

MDR1 (P-glycoprotein) = assay: in vitro; conditions: dog, MDCK-MDR1
[3] = biological target: T3, human Arginine Vasopressin Receptor 1b (AVPR1b) (Homo sapiens, UniProt P47901); assay: Vasopressin V1b receptor antagonist assay (FLIPR calcium, CHO-AVPR1b cells); type: cell-based; conditions: antagonism of AVP (EC80) response
T3 construct: expressed in transfected cells; host or cells: CHO (Chinese Hamster Ovary) cells, kept under G418 selection
T3 sequence (P47901 1-424): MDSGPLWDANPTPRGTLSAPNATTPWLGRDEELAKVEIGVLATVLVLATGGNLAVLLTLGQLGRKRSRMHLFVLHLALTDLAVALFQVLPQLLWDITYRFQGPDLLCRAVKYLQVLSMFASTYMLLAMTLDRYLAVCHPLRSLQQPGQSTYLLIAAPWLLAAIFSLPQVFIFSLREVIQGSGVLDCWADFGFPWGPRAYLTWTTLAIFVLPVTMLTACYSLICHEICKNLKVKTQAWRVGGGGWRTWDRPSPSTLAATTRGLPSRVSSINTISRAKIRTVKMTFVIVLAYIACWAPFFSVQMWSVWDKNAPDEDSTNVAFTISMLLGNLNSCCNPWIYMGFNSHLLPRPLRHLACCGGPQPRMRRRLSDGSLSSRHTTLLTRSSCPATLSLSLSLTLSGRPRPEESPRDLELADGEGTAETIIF
Protocol: The purpose of the assay is to determine the inhibitory effect of synthesized compounds on the Vasopressin V1b receptor. The assay is performed in Chinese Hamster Ovary (CHO) cells expressing the human Arginine Vasopressin Receptor 1b (AVPR1b). Arginine Vasopressin (AVP) evokes an increase in intracellular calcium in CHO-AVPR1b cells which is measured in a fluorescence assay on the FLIPR^TETRA using calcium sensitive dyes. Test compounds are assessed for their ability to affect the magnitude of the response to AVP, with antagonists showing a concentration-dependent reduction in the AVP-mediated fluorescence.
CHO-AVPR1b cells are maintained in routine culture in T175 Flasks at 37° C., 5% CO2. […]
Cells are harvested from T175 flasks when they are 80-90% confluent by first washing the cell monolayer with PBS and then dissociated using trypsin 0.05%/EDTA (3 mL for a T175 Flask). […] To the cell suspension, 10 ml of growth media is added and the cell density determined using the Vi-Cell automated cell counter. […]
At the start of each assay day, the potency of AVP is assessed and an EC80 concentration determined for subsequent compound profiling. […] Changes in fluorescence are monitored for 3 min after both additions on the FLIPR^TETRA using 470-495 nm excitation and 515-575 nm emission wavelengths. […]

[4] = biological target: T4, human Oxytocin Receptor (hOTR) (Homo sapiens, UniProt P30559); assay: Oxytocin receptor antagonist assay (FLIPR calcium, CHEM-1-hOTR cells); type: cell-based; conditions: antagonism of oxytocin (EC80) response; read-out: OT IC50
T4 construct: host or cells: CHEM-1 cells (ready-to-assay frozen cells)
T4 sequence (P30559 1-389): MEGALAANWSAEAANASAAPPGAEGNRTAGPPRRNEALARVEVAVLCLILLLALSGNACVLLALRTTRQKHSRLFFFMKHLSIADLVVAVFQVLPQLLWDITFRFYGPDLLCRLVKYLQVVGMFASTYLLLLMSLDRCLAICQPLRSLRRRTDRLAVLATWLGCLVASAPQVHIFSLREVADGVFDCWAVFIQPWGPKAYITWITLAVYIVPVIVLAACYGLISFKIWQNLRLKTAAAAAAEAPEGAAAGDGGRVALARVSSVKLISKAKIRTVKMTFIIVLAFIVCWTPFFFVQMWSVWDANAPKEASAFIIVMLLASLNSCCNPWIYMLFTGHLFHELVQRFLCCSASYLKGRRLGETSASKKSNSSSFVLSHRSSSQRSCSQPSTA
Protocol: This assay is performed in CHEM-1 cells expressing the human Oxytocin Receptor (hOTR) to determine the inhibitory effect of the compounds of the invention on the human Oxytocin receptor. Oxytocin evokes an increase in intracellular calcium in CHEM-1-hOTR cells which is measured in a fluorescence assay on the FLIPR^TETRA using calcium sensitive dyes. Test compounds are assessed for their ability to affect the magnitude of the response to oxytocin, with antagonists showing a concentration-dependent reduction in the oxytocin-mediated fluorescence.
CHEM-1-hOTR ready is used to assay frozen cells (Eurofins #HTS090RTA) which are supplied with a proprietary Media Component.
Day 1 of the assay: Cells are thawed in a 37° C. water bath and diluted with the supplied Media Component to a final volume of 10 ml. The cell suspension is centrifuged at 1000 rpm for 3 min at room temperature and the supernatant is discarded. […]
Day 2: At the start of each assay day the potency of oxytocin is assessed and an EC80 concentration is determined for subsequent compound profiling. […] Changes in fluorescence are monitored for 3 min after both additions on the FLIPR^TETRA using 470-495 nm excitation and 515-575 nm emission wavelengths. […] At the end of the incubation period 10 μl of oxytocin in assay buffer containing 0.1% BSA is added at the previously determined EC80 concentration. […]

in vitro = conditions: dog, MDCK

T1 sequence (P37288 whole entry): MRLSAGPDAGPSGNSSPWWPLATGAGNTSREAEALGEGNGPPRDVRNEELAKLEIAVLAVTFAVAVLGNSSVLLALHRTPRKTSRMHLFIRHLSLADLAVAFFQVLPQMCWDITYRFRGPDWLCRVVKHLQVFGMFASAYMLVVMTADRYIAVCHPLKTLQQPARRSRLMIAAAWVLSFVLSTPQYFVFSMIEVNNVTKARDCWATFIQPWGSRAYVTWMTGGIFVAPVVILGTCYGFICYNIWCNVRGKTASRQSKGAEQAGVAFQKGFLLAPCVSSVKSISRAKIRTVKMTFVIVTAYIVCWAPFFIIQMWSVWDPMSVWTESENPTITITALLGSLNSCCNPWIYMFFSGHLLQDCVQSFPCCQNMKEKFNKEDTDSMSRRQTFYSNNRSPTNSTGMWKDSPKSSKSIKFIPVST
T2 sequence (P30518 whole entry): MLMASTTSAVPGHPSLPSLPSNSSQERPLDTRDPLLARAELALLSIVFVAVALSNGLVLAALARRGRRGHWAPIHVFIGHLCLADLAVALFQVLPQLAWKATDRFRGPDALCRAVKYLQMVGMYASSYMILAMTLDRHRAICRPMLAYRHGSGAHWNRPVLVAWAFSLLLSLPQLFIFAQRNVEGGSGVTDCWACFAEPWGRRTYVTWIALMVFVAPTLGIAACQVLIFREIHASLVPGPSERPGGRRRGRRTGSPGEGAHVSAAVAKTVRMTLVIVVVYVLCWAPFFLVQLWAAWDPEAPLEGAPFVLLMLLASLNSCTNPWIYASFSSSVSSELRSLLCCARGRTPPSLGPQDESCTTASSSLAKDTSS

| SMILES | IC50 [1] [µM] | IC50 [2] [µM] | Papp A→B (MDR1 (P-glycoprotein)) [×10⁻⁶ cm/s] | IC50 ([1]; antagonism of AVP (EC80) response, read-out: V1a IC50) [µM] | IC50 [3] [µM] | IC50 [4] [µM] | Papp A→B (in vitro) [×10⁻⁶ cm/s] |
| --- | --- | --- | --- | --- | --- | --- | --- |
| Clc1ccc2c(c1)CN(C1CC1)Cc1nnc(N3CC4(CN(c5ncccn5)C4)C3)n1-2 [Compound No. 225, 8-chloro-5-cyclopropyl-1-(6-(pyrimidin-2-yl)-2,6-diazaspiro[3.3]heptan-2-yl)-5,6-dihydro-4H-benzo[f][1,2,4]triazolo[4,3-a][1,4]diazepine] | < 0.1 | > 1 | > 20 | – | – | – | – |
| CN1Cc2cc(Cl)ccc2-n2c(nnc2[C@H]2CC[C@H](Oc3ccccn3)CC2)C1 [balovaptan] | – | – | > 20 | < 0.1 | > 1 | > 1 | 10 to 20 |

From patent publication US12247037B2, “1-(2,6-diazaspiro[3.3]heptan-6-yl)-5,6-dihydro-4h-benzo[f][1,2,4]triazolo[4,3-A][1,4]diazepine derivatives and related compounds as vasopressin antagonists for the treatment of neuro-psychological disorders” (Neumora Therapeutics, Inc., priority 2018, dated 2025)
